# Article PMC10174618, “Monoterpenoid aryl hydrocarbon receptor allosteric antagonists protect against ultraviolet skin damage in female mice” (Nature Communications, 2023)
# Assays:
# Assay in all cases: biochemical
# Parameters in all cases: KINOMEscan scanMAX active site-directed competition binding assay, percent of control, 468 kinases
# Details in all cases: competition binding, percent of control
# [1] = molecular target: T1, ADCK3 (Homo sapiens, UniProt Q8NI60)
# T1 construct: gene COQ8A
# Procedure, shortened: (§1)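 Single-concentration screen (100 μM S-carvone) in a competition binding panel of 468 human kinases (KINOMEscan scanMAX); results given as percent of control, hit cutoff 35%.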
# [2] = molecular target: CAMK1D (Homo sapiens, UniProt Q8IU85)
# Procedure, shortened: as §1
# [3] = molecular target: CAMK2A (Homo sapiens, UniProt Q9UQM7)
# Procedure, shortened: as §1
# [4] = molecular target: CAMK2G (Homo sapiens, UniProt Q13555)
# Procedure, shortened: as §1
# [5] = molecular target: DYRK2 (Homo sapiens, UniProt Q92630)
# Sequence of DYRK2 (Q92630 whole entry): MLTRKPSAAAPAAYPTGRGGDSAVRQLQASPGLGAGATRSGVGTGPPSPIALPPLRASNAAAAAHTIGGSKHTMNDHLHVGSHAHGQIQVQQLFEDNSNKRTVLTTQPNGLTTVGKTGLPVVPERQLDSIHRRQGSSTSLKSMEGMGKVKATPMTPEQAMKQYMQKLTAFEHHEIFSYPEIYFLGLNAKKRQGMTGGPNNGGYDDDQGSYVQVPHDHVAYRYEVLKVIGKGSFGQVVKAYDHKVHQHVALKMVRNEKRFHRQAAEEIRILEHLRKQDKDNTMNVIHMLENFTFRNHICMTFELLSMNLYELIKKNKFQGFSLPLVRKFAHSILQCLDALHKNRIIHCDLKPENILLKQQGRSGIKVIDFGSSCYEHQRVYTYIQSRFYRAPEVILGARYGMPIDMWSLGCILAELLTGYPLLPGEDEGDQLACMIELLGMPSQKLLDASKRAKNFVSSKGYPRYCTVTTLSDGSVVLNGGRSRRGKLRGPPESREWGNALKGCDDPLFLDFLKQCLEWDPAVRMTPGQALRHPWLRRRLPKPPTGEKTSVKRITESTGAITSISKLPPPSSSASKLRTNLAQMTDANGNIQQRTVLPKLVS
# Procedure, shortened: as §1
# [6] = molecular target: EGFR(L747-E749del, A750P) (Homo sapiens, UniProt P00533, A750P/DEL747-749)
# Sequence of EGFR(L747-E749del, A750P) (P00533 with tags, fused parts or gaps DEL747-749/A750P): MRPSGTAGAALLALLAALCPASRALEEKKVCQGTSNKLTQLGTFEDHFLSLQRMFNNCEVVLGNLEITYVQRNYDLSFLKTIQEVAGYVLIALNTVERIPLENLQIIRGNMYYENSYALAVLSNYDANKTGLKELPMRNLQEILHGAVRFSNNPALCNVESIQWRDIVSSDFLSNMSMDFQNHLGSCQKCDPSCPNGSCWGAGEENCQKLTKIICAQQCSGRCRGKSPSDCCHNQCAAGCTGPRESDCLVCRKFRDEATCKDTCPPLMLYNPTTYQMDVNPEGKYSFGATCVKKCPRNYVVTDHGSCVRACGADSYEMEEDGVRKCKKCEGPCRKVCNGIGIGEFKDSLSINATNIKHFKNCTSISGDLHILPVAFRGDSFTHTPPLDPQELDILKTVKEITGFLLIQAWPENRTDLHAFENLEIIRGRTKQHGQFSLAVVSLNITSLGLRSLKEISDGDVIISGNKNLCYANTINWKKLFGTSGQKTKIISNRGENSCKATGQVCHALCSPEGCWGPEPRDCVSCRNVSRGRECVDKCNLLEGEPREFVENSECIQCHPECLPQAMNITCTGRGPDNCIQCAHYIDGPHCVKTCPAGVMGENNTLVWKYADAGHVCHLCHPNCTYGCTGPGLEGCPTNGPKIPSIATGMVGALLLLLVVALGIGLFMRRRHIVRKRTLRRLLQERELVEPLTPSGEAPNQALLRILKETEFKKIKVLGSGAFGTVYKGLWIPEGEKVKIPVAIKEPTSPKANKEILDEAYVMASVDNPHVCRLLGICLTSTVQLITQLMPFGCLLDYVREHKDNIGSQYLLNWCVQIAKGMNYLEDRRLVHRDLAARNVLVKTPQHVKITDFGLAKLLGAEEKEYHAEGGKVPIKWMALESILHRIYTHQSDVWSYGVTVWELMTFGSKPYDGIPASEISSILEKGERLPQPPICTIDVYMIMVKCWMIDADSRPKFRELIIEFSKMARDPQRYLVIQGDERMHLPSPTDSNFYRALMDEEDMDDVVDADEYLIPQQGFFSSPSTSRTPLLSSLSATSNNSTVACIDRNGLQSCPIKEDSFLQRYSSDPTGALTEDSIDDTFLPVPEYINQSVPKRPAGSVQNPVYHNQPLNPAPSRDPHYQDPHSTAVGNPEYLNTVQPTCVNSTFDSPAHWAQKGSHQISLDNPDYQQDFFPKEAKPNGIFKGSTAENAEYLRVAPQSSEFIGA
# Procedure, shortened: as §1
# [7] = molecular target: HIPK1 (Homo sapiens, UniProt Q86Z02)
# Procedure, shortened: as §1
# [8] = molecular target: IRAK3 (Homo sapiens, UniProt Q9Y616)
# Procedure, shortened: as §1
# [9] = molecular target: ITK (Homo sapiens, UniProt Q08881)
# Sequence of ITK (Q08881 whole entry): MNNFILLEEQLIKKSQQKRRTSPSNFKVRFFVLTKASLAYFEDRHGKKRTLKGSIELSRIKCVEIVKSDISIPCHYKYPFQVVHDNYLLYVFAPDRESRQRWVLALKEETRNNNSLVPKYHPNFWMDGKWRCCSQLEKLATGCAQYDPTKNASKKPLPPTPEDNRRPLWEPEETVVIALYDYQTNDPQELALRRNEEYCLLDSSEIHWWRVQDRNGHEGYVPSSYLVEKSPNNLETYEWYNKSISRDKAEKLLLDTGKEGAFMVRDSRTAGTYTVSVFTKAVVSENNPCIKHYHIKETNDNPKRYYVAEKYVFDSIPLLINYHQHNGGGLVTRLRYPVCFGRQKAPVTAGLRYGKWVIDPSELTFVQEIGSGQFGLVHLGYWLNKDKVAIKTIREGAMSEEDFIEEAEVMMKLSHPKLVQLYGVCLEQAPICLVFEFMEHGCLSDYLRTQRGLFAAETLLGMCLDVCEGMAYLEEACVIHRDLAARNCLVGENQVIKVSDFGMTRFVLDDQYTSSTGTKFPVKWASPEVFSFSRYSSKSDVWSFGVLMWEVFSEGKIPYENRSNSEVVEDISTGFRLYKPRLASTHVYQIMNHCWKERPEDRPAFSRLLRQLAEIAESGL
# Procedure, shortened: as §1
# [10] = molecular target: KIT(V559D,T670I) (Homo sapiens, UniProt P10721, T670I/V559D)
# Sequence of KIT(V559D,T670I) (P10721 whole entry V559D/T670I): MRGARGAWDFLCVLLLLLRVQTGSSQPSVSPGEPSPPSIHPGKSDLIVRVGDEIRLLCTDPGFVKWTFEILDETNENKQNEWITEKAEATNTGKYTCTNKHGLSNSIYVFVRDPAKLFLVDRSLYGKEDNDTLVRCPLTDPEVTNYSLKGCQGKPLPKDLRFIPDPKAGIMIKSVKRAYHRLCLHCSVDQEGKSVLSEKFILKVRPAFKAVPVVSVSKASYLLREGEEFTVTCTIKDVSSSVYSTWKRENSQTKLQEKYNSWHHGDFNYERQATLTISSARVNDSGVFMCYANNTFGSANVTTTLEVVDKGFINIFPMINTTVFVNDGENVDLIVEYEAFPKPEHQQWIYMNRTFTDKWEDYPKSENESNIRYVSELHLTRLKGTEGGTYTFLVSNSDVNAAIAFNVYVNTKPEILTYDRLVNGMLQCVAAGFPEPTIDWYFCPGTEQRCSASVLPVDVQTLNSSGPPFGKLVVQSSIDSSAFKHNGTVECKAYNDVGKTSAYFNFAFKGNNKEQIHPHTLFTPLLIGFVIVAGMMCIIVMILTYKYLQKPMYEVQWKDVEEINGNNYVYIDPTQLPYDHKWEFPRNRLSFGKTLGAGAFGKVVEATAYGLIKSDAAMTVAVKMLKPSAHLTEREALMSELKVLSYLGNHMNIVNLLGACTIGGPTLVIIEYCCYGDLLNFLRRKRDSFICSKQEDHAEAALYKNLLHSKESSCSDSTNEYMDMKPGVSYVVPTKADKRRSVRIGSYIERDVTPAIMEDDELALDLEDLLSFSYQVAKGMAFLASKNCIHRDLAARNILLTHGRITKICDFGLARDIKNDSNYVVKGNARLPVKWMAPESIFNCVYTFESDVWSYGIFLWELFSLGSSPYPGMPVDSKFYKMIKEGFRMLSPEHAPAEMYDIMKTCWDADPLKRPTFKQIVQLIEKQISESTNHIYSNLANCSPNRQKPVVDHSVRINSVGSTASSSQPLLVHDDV
# Procedure, shortened: as §1
# [11] = molecular target: MAP4K3 (Homo sapiens, UniProt Q8IVH8)
# Procedure, shortened: as §1
# [12] = molecular target: MARK4 (Homo sapiens, UniProt Q96L34)
# Procedure, shortened: as §1
# [13] = molecular target: T2, MRCKB (Homo sapiens, UniProt Q9Y5S2)
# T2 construct: gene CDC42BPB
# Procedure, shortened: as §1
# [14] = molecular target: PIP5K1A (Homo sapiens, UniProt Q99755)
# Procedure, shortened: as §1
# [15] = molecular target: PRKG1 (Homo sapiens, UniProt Q13976)
# Procedure, shortened: as §1
# [16] = molecular target: T3, PRKR (Homo sapiens, UniProt P19525)
# T3 construct: gene EIF2AK2
# Procedure, shortened: as §1
# [17] = molecular target: RAF1 (Homo sapiens, UniProt P04049)
# Procedure, shortened: as §1
# [18] = molecular target: TSSK3 (Homo sapiens, UniProt Q96PN8)
# Sequence of TSSK3 (Q96PN8 whole entry): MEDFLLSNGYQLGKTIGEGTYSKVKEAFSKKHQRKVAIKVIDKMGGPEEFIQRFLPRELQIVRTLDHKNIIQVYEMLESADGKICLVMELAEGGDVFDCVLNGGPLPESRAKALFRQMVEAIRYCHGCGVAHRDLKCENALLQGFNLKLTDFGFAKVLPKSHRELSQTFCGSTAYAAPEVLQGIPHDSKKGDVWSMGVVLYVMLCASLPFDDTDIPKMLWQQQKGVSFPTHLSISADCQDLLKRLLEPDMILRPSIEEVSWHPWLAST
# Procedure, shortened: as §1
# [19] = molecular target: T4, VPS34 (Homo sapiens, UniProt Q8NEB9)
# T4 construct: gene PIK3C3
# T4 sequence (Q8NEB9 whole entry): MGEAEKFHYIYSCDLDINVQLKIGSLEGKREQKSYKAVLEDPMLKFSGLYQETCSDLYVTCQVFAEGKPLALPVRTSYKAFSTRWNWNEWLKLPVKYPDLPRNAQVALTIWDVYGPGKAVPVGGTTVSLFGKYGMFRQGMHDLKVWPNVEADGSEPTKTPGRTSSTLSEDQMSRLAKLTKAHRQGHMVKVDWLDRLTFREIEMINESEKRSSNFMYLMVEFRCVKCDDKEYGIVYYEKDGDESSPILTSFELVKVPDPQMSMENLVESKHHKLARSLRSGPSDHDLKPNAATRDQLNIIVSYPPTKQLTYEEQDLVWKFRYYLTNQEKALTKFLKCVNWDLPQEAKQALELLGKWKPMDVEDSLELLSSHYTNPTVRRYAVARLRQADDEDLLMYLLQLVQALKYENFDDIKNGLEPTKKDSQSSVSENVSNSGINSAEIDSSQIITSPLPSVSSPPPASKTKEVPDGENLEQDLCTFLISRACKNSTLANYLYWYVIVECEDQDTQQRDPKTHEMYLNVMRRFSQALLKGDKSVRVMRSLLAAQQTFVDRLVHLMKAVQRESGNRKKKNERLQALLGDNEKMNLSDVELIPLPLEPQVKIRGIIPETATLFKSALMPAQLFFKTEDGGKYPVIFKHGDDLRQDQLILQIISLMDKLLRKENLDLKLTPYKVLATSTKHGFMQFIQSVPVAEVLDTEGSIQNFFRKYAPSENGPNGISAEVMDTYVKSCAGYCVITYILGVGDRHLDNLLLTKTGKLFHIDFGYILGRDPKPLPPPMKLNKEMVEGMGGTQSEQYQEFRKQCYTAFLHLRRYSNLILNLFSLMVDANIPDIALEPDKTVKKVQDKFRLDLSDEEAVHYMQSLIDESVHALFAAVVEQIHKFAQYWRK
# Procedure, shortened: as §1
# [20] = molecular target: T5, YANK1 (Homo sapiens, UniProt Q8WU08)
# T5 construct: gene STK32A
# Procedure, shortened: as §1
# [21] = molecular target: T6, p38-gamma (Homo sapiens, UniProt P53778)
# T6 construct: gene MAPK12
# T6 sequence (P53778 whole entry): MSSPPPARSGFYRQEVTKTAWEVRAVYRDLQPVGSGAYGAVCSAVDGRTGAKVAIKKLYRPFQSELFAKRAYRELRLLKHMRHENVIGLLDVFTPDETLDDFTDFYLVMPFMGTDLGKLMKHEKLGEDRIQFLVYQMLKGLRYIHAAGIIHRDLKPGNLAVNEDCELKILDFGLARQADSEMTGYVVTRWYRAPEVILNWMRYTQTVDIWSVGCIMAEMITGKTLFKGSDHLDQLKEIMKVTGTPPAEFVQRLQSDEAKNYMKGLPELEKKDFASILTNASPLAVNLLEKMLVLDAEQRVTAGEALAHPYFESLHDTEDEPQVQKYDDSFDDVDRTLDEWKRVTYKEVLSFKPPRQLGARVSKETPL
# Procedure, shortened: as §1
structure (smiles),measurement,setting,value
C=C(C)[C@H]1CC=C(C)C(=O)C1 [S-carvone],remaining binding at 100 µM,[1],66%
same,remaining binding at 100 µM,[2],83%
same,remaining binding at 100 µM,[3],79%
same,remaining binding at 100 µM,[4],84%
same,remaining binding at 100 µM,[5],93%
same,remaining binding at 100 µM,[6],86%
same,remaining binding at 100 µM,[7],61%
same,remaining binding at 100 µM,[8],100%
same,remaining binding at 100 µM,[9],87%
same,remaining binding at 100 µM,[10],91%
same,remaining binding at 100 µM,[11],90%
same,remaining binding at 100 µM,[12],73%
same,remaining binding at 100 µM,[13],91%
same,remaining binding at 100 µM,[14],98%
same,remaining binding at 100 µM,[15],84%
same,remaining binding at 100 µM,[16],74%
same,remaining binding at 100 µM,[17],99%
same,remaining binding at 100 µM,[18],100%
same,remaining binding at 100 µM,[19],64%
same,remaining binding at 100 µM,[20],78%
same,remaining binding at 100 µM,[21],72%
